Data reported in PubChem BioAssay (NCI).
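A five-concentration, 48-hour dose response in 96-well plates underlies each endpoint, interpolated linearly between surrounding concentrations. Abbreviation: GI50, concentration required for 50% inhibition of growth. At the TGI there is no net growth.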

Assays:
Assay in all cases: NCI tumour cell line growth inhibition, 48 h
SK-MEL-5 melanoma = tested on: SK-MEL-5 melanoma
PC-3 prostate = tested on: PC-3 prostate
T-47D breast = tested on: T-47D breast
M14 melanoma = tested on: M14 melanoma
OVCAR-8 ovarian = tested on: OVCAR-8 ovarian
786-0 renal = tested on: 786-0 renal
SF-539 CNS = tested on: SF-539 CNS
SN12C renal = tested on: SN12C renal
MOLT-4 leukemia = tested on: MOLT-4 leukemia
COLO 205 colon = tested on: COLO 205 colon

Row | SMILES | GI50 (SK-MEL-5 melanoma) [µM] | TGI (SK-MEL-5 melanoma) [µM] | GI50 (PC-3 prostate) [µM] | TGI (PC-3 prostate) [µM] | GI50 (T-47D breast) [µM] | TGI (T-47D breast) [µM] | GI50 (M14 melanoma) [µM] | TGI (M14 melanoma) [µM] | GI50 (OVCAR-8 ovarian) [µM] | TGI (OVCAR-8 ovarian) [µM] | GI50 (786-0 renal) [µM] | TGI (786-0 renal) [µM] | GI50 (SF-539 CNS) [µM] | TGI (SF-539 CNS) [µM] | GI50 (SN12C renal) [µM] | TGI (SN12C renal) [µM] | GI50 (MOLT-4 leukemia) [µM] | TGI (MOLT-4 leukemia) [µM] | GI50 (COLO 205 colon) [µM] | TGI (COLO 205 colon) [µM]
1 | CC(=O)OCc1cc[c]([Hg][Cl])o1 | 4.38 | 15.9 | 11 | 24.2 | 1.36 | 3.98 | 3.11 | 13 | 11.4 | 57.7 | 3.88 | 13.2 | 4.97 | 21.2 | 5.24 | 29.9 | 2.07 | 8.46 | 1.63 | 3.29
2 | CC#CC#C/C=C1/C=CC2(CCCCO2)O1 (centres undefined) | – | > 100 | – | > 100 | – | > 100 | – | > 100 | – | > 100 | – | > 100 | – | > 100 | – | > 100 | – | > 100 | – | > 100
3 | N/C(=N/O)NOCCC(N)C(=O)O (centres undefined) | > 100 | > 100 | > 100 | > 100 | > 100 | > 100 | > 100 | > 100 | > 100 | > 100 | > 100 | > 100 | > 100 | > 100 | > 100 | > 100 | > 100 | > 100 | > 100 | > 100
4 | NS(=O)(=O)c1ccc(NC(=O)Nc2cccc3ccccc23)cc1 | – | > 100 | – | 44 | – | > 100 | – | > 100 | – | 40.6 | – | 38 | – | 50.8 | – | > 100 | – | > 100 | – | > 100
5 | Clc1ccc(Nc2nnc(COc3ccccc3)c3ccccc23)cc1 | 1.08 | 4.56 | 1.3 | 10.1 | 0.881 | 8.44 | 0.918 | 5.03 | 3.49 | 15 | 2.6 | 8.11 | 3.12 | 7.58 | 2.12 | 8.07 | 1.06 | 6.7 | 0.456 | 4.38
6 | COc1cc(OC)c(OC)cc1/C=C/c1ccc2ccccc2n1 | – | > 10 | – | > 10 | – | > 10 | – | > 10 | – | > 10 | – | > 10 | – | > 10 | – | > 10 | – | > 10 | – | > 10
7 | COc1cc(/C=C/[N+](=O)[O-])cc(OC)c1 | 1.97 | 4.03 | 2.94 | 8.38 | 2.17 | 7.03 | 2 | 4.48 | 3.72 | 13.9 | 1.74 | 3.31 | 2.49 | 5.56 | 3.38 | 15.9 | 2.25 | 6.33 | 1.79 | 3.63
8 | O=C(Nc1c(Cl)cccc1Cl)Oc1cccc2cccnc12 | 3.39 | 12.3 | 6.26 | > 100 | 3.29 | 14.5 | 4.03 | 20.2 | 3.08 | 50 | 7.4 | > 100 | 4.57 | 19 | 4.61 | > 100 | 3.96 | 28.4 | 35.2 | > 100
9 | COc1ccc(C2CC(=O)Nc3c2c(C)nn3-c2nc3ccccc3[nH]2)cc1OC (centres undefined) | 2.42 | 6.17 | 4.27 | 63.6 | 4.49 | 50.1 | 3.45 | 20.4 | 4.09 | 43.6 | 5.2 | 24.8 | 2.85 | 9.48 | 5.96 | 35.5 | 0.0405 | 0.27 | 9.36 | 40.7
10 | CCN(CC(O)COc1ccc2c(c1)[n+]([O-])nc(N)[n+]2[O-])C(C)=O (centres undefined) | – | > 100 | – | > 100 | – | > 100 | – | > 100 | – | > 100 | – | > 100 | – | > 100 | – | > 100 | – | > 100 | – | > 100
11 | CS(=O)(=O)Nc1cc(-c2ccc3ncnc(Nc4ccc(OCc5ccccn5)c(Cl)c4)c3c2)cnc1Cl | 0.214 | 0.68 | 0.349 | > 100 | 0.0258 | 0.217 | 0.486 | – | 1.36 | 26.8 | 0.804 | > 100 | 0.31 | 2.38 | 0.35 | > 100 | 0.223 | 0.75 | 0.316 | 1.85
12 | O=C(O)[C@@H](Cc1ccccc1)NS(=O)(=O)c1ccc(-c2ccccc2)cc1 | > 100 | > 100 | > 100 | > 100 | > 100 | > 100 | > 100 | > 100 | > 100 | > 100 | > 100 | > 100 | > 100 | > 100 | > 100 | > 100 | > 100 | > 100 | > 100 | > 100
13 | S=C1NC(c2ccccc2)NC(c2ccccc2)S1 (centres undefined) | – | > 100 | – | > 100 | – | > 100 | – | > 100 | – | > 100 | – | > 100 | – | > 100 | – | > 100 | – | > 100 | – | > 100
14 | Cc1ccc(O)c(C(=O)/C=C/c2ccccc2)c1 | – | > 100 | – | > 100 | – | > 100 | – | > 100 | – | > 100 | – | > 100 | – | > 100 | – | > 100 | – | > 100 | – | > 100
